Experimental data reported in patent publication US6380196B1, “Dihydrobenzofurans” (Byk Gulden Lomberg Chemische Fabrik GmbH, priority 1997, dated 2002).
Structures can show the parent of a compound that is named as a salt.

Tests used:
[1] = test system: PDE4; assay: Inhibition of PDE 4 activity (method of Bauer and Schwabe, adapted to microtitre plates); assay type: biochemical
Method: The activity test was carried out according to the method of Bauer and Schwabe, which was adapted to microtitre plates (Naunyn-Schmiederberg's Arch. Pharmacol. 311, 193-198, 1980). In this test, the PDE reaction is carried out in the first step. In a second step, the resultant 5′-nucleotide is cleaved to the uncharged nucleoside by a snake venom 5′-nucleotidase from Crotalus Atrox. In the third step, the nucleoside is separated from the remaining charged substrate on ion exchange columns. The columns are eluted directly into minivials using 2 ml of 30 mM ammonium formate (pH 6.0), to which a further 2 ml of scintillation fluid is added for counting.
The inhibitory values determined for the compounds according to the invention follow from the following table A, in which the numbers of the compounds correspond to the numbers of the examples.

Row | Structure (SMILES) | Inhibition of PDE4 activity [measured as -loglC50 (mol/l)] [1] | melting point [°C]
1 | COc1ccc(C2=NN(Cc3ccc(C(=O)O)cc3)C(=O)C3CCCCC23)c2c1OC1(CCCC1)C2 (stereo not drawn) [Compound 11, (cis)-4-(2,3-Dihydro-7-methoxybenzofuran-2-spiro-1′-cyclopentan-4-yl)-2-(4-carboxybenzyl)-4a,5,6,7,8,8a-hexahydro-2H-phthalazin-1-one] | 7.66 | 
2 | COc1ccc(C2=NN(Cc3ccccc3)C(=O)C3CC=CCC23)c2c1OC1(CCCC1)C2 (stereo not drawn) [Compound 7, (cis)-4-(2,3-Dihydro-7-methoxybenzofuran-2-spiro-1′-cyclopentan-4-yl)-2-benzyl-4a,5,8,8a-tetrahydro-2H-phthalazin-1-one] | 8.93 | 
3 | COc1ccc(C2=NN(C3CCCCCC3)C(=O)[C@H]3CC=CC[C@@H]23)c2c1OC(C)(C)C2 (relative stereo) [Compound 25, (cis)-4-(2,3-Dihydro-2,2-dimethyl-7-methoxybenzofuran-4-yl)-2-cycloheptyl-4a,5,8,8a-tetrahydro-2H-phthalazin-1-one] | 9.01 | 
4 | COc1ccc(C2=NNC(=O)[C@H]3CC=CC[C@@H]23)c2c1OC(C)(C)C2 (relative stereo) |  | 242
5 | COc1ccc(C2=NN(Cc3ccccc3)C(=O)C3CC=CCC23)c2c1OC(C)(C)C2 (stereo not drawn) [Compound 26, (cis)-4-2,3-Dihydro-2,2-dimethyl-7-methoxybenzofuran-4-yl)-2-benzyl-4a,5,8,8a-tetrahydro-2H-phthalazin-1-one] | 8.72 | 
6 | COc1ccc(C2=NN(C3CCCCCC3)C(=O)C3CC=CCC23)c2c1OC1(CCCC1)C2 (stereo not drawn) [Compound 6, (cis)-4-(2,3-Dihydro-7-methoxybenzofuran-2-spiro-1′-cyclopentan-4-yl)-2-cycloheptyl-4a,5,8,8a-tetrahydro-2H-phthalazin-1-one] | 9.17 | 
7 | COc1ccc(C2=NN(CCO)C(=O)C3CC=CCC23)c2c1OC1(CCCC1)C2 (stereo not drawn) [Compound 17, (cis)-4-(2,3-Dihydro-7-methoxybenzofuran-2-spiro-1′-cyclopentan-4-yl-2-hydroxyethyl-4a,5,8,8a-tetrahydro-2H-phthalazin-1-one] | 8.36 | 
8 | COc1ccc(C2=NN(c3ccccc3)C(=O)C3CC=CCC23)c2c1OC1(CCCC1)C2 (stereo not drawn) [Compound 8, (cis)-4-(2.3-Dihydro-7-methoxybenzofuran-2-spiro-1′-cyclopentan-4-yl)-2-phenyl-4a,5,8,8a-tetrahydro-2H-phthalazin-1-one] | 8.87 | 
9 | COc1ccc(C2=NNC(=O)C3CCCCC23)c2c1OC1(CCCC1)C2 [Compound 9, (4aS, 8aR)-4-(2,3-Dihydro-7-methoxybenzofuran-2-spiro-1′-cyclopentan-4-yl)-4a,5,6,7,8,8a-hexahydro-2H-phthalazin-1-one] | 7.80 | 
10 | COc1ccc(C2=NN(Cc3ccncc3)C(=O)C3CCCCC23)c2c1OC1(CCCC1)C2 (stereo not drawn) [Compound 12, (cis)-4-(2,3-Dihydro-7-methoxybenzofuran-2-spiro-1′-cyclopentan-4-yl)-2-(4-pyridylmethyl)-4a,5,6,7,8,8a-hexahydro-2H-phthalazin-1-one-hydrochloride] | 8.22 | 
11 | COc1ccc(C2=NN(C3CCCCCC3)C(=O)C3CCCCC23)c2c1OC1(CCCC1)C2 (stereo not drawn) [Compound 13, (cis)-4-(2,3-Dihydro-7-methoxybenzofuran-2-spiro-1′-cyclopentan-4-yl)-2-cycloheptyl-4a,5,6,7,8,8a-hexahydro-2H-phthalazin-1-one] | 9.22 | 
12 | COc1ccc(C2=NN(c3ccc(C(=O)O)cc3)C(=O)C3CC=CCC23)c2c1OC1(CCCC1)C2 (stereo not drawn) [Compound 24, (cis)-4-(2,3-Dihydro-7-methoxybenzofuran-2-spiro-1′-cyclopentan-4-yl)-2-(p-carboxyphenyl)-4a,5,8,8a-tetrahydro-2H-phthalazin-1-one] | 9.38 | 
13 | COc1ccc(C2=NNC(=O)C3CC=CCC23)c2c1OC1(CCCC1)C2 (stereo not drawn) [Compound 1, (cis)-4-(2,3-Dihydro-7-methoxybenzofuran-2-spiro-1′-cyclopentan-4-yl)-4a,5,8,8a-tetrahydro-2H-phthalazin-1-one] | 8.02 | 
14 | COc1ccc(C2=NN(c3ccccc3)C(=O)[C@H]3CC=CC[C@@H]23)c2c1OC(C)(C)C2 (relative stereo) [Compound 27, (cis)-4-(2,3-Dihydro-2,2-dimethyl-7-methoxybenzofuran-4-yl)-2-phenyl-4a,5,8,8a-tetrahydro-2H-phthalazin-1-one] | 8.74 | 
15 | COc1ccc(C2=NN(CCCCn3ccnc3)C(=O)C3CC=CCC23)c2c1OC1(CCCC1)C2 (stereo not drawn) [Compound 22, (cis)-4(2,3-Dihydro-7-methoxybenzofuran-2-spiro-1′-cylopentan-4-yl)-2-[4-(imidazol-1yl)-1-butyl]-4a,5,8,8a-tetrahydro-phthalazin-1-one] | 8.82 | 
16 | COc1ccc(C2=NN(C3CCCC3)C(=O)C3CC=CCC23)c2c1OC1(CCCC1)C2 (stereo not drawn) [Compound 5, (cis)-4-(2,3-Dihydro-7-methoxybenzofuran-2-spiro-1′-cyclopentane-4-yl)-2-cyclopentyl-4a,5,8,8a-tetrahydro-2H-phthalazin-1-one] | 9.22 | 
17 | COc1ccc(C2=NN(Cc3ccccc3)C(=O)C3CCCCC23)c2c1OC1(CCCC1)C2 (stereo not drawn) [Compound 14, (cis)-4-(2,3-Dihydro-7-methoxybenzofuran-2-spiro-1′-cyclopentan-4-yl)-2-benzyl-4a,5,6,7,8,8a-hexahydro-2H-phthalazin-1-one] | 8.62 | 
